Columns and labels:
CnTDH [1] = target: T1, CnTDH (Cupriavidus necator, UniProt Q0K312, V11I/R67K/G69K/G263D/Q265E/D282Q, form not given); assay: NADH formation at […] nm, Michaelis-Menten fit; format: biochemical; details: 0.1 M Gly-KOH pH 10.0; 2.5 mM NAD+; 0.0-40 mM L-threonine
T1 construct: gene H16_B0820; recombinant in E. coli BL21(DE3), His-tag (HisTrap; pET15b NdeI/BamHI for the designed variants), size-exclusion purified

CnTDH [2] = target: T2, CnTDH (Cupriavidus necator, UniProt Q0K312, N14C/R31N/A62E/A160N/H177Y/A291K/A310K, form not given); assay: NADH formation at […] nm, Michaelis-Menten fit; format: biochemical; details: 0.1 M Gly-KOH pH 10.0; 2.5 mM NAD+; 0.0-40 mM L-threonine
T2 construct: gene H16_B0820; recombinant in E. coli BL21(DE3), His-tag (HisTrap; pET15b NdeI/BamHI for the designed variants), size-exclusion purified

Km (CnTDH [1]): 11.6 ± 1.4 mM | Km (CnTDH [2]): 17.4 ± 1.9 mM
Compound: C[C@@H](O)[C@H](N)C(=O)O [L-threonine]
